Tested on: ulcerative colitis patients in an active stage
Test: Clinical study, 960 mg orally 3 times a day for 8 weeks: subscore for physician's global assessment of Mayo score
Type: in vivo, human
Experimental: The compound of Example 1 or the compound of Comparative Example 1 was orally administered after meals 3 times a day. The number of the given tablets was 8 per administration (i.e., the amount of the compound (1) of Example 1 administered was 960 mg per administration). The administration period was 8 weeks. The compounds were administered until the timing after the breakfast on the day before the assessment day at Week 8.
(4) Physician's Global Assessment [Investigation Timings: Weeks 0, 2, 4, and 8 (or Discontinuation Time)]
The investigators or sub-investigators conducted a medical interview with the subjects (for abdominal discomfort, systemic state, investigator's finding, subject's impression, and so forth), and investigated the state on each assessment day.
The investigators or sub-investigators scored the physician's global assessment according to the following criteria with reference to the other three assessment criteria (stool frequency, bloody stool, and mucosal finding), as well as the abdominal discomfort, systemic state, investigator's finding, subject's impression, and so forth. Note that, on the days of the assessment performed without an endoscope, no mucosal finding was considered in scoring the physician's global assessment.

COC(=O)[C@H](Cc1ccc(-n2c(=O)c3cc(N(C)C)ccc3n(C)c2=O)cc1)NC(=O)c1c(Cl)cccc1Cl [Example 1, methyl(2S)-2-(2,6-dichlorobenzamide)-3-{4-[6-(dimethylamino)-1-methyl-2,4-dioxo-1,4-dihydroquinazolin-3(2H)-yl]phenyl}propanoate]
Number of cases, cross tabulation of subscore for physician's global assessment (Week 2 score 0, Week 0 score 0): 0 | Number of cases, cross tabulation of subscore for physician's global assessment (Week 2 score 0, Week 0 score 1): 0 | Number of cases, cross tabulation of subscore for physician's global assessment (Week 2 score 0, Week 0 score 2): 3 | Number of cases, cross tabulation of subscore for physician's global assessment (Week 2 score 0, Week 0 score 3): 0 | Number of cases, cross tabulation of subscore for physician's global assessment (Week 2 score 1, Week 0 score 0): 0 | Number of cases, cross tabulation of subscore for physician's global assessment (Week 2 score 1, Week 0 score 1): 3 | Number of cases, cross tabulation of subscore for physician's global assessment (Week 2 score 1, Week 0 score 2): 19 | Number of cases, cross tabulation of subscore for physician's global assessment (Week 2 score 1, Week 0 score 3): 0 | Number of cases, cross tabulation of subscore for physician's global assessment (Week 2 score 2, Week 0 score 0): 0 | Number of cases, cross tabulation of subscore for physician's global assessment (Week 2 score 2, Week 0 score 1): 0 | Number of cases, cross tabulation of subscore for physician's global assessment (Week 2 score 2, Week 0 score 2): 26 | Number of cases, cross tabulation of subscore for physician's global assessment (Week 2 score 2, Week 0 score 3): 0 | Number of cases, cross tabulation of subscore for physician's global assessment (Week 2 score 3, Week 0 score 0): 0 | Number of cases, cross tabulation of subscore for physician's global assessment (Week 2 score 3, Week 0 score 1): 0 | Number of cases, cross tabulation of subscore for physician's global assessment (Week 2 score 3, Week 0 score 2): 0 | Number of cases, cross tabulation of subscore for physician's global assessment (Week 2 score 3, Week 0 score 3): 0 | Number of cases, cross tabulation of subscore for physician's global assessment (Week 4 score 0, Week 0 score 0): 0 | Number of cases, cross tabulation of subscore for physician's global assessment (Week 4 score 0, Week 0 score 1): 0 | Number of cases, cross tabulation of subscore for physician's global assessment (Week 4 score 0, Week 0 score 2): 7 | Number of cases, cross tabulation of subscore for physician's global assessment (Week 4 score 0, Week 0 score 3): 0 | Number of cases, cross tabulation of subscore for physician's global assessment (Week 4 score 1, Week 0 score 0): 0 | Number of cases, cross tabulation of subscore for physician's global assessment (Week 4 score 1, Week 0 score 1): 3 | Number of cases, cross tabulation of subscore for physician's global assessment (Week 4 score 1, Week 0 score 2): 23 | Number of cases, cross tabulation of subscore for physician's global assessment (Week 4 score 1, Week 0 score 3): 0 | Number of cases, cross tabulation of subscore for physician's global assessment (Week 4 score 2, Week 0 score 0): 0 | Number of cases, cross tabulation of subscore for physician's global assessment (Week 4 score 2, Week 0 score 1): 0 | Number of cases, cross tabulation of subscore for physician's global assessment (Week 4 score 2, Week 0 score 2): 18 | Number of cases, cross tabulation of subscore for physician's global assessment (Week 4 score 2, Week 0 score 3): 0 | Number of cases, cross tabulation of subscore for physician's global assessment (Week 4 score 3, Week 0 score 0): 0 | Number of cases, cross tabulation of subscore for physician's global assessment (Week 4 score 3, Week 0 score 1): 0 | Number of cases, cross tabulation of subscore for physician's global assessment (Week 4 score 3, Week 0 score 2): 0 | Number of cases, cross tabulation of subscore for physician's global assessment (Week 4 score 3, Week 0 score 3): 0 | Number of cases, cross tabulation of subscore for physician's global assessment (Week 8 score 0, Week 0 score 0): 0 | Number of cases, cross tabulation of subscore for physician's global assessment (Week 8 score 0, Week 0 score 1): 1 | Number of cases, cross tabulation of subscore for physician's global assessment (Week 8 score 0, Week 0 score 2): 6 | Number of cases, cross tabulation of subscore for physician's global assessment (Week 8 score 0, Week 0 score 3): 0 | Number of cases, cross tabulation of subscore for physician's global assessment (Week 8 score 1, Week 0 score 0): 0 | Number of cases, cross tabulation of subscore for physician's global assessment (Week 8 score 1, Week 0 score 1): 2 | Number of cases, cross tabulation of subscore for physician's global assessment (Week 8 score 1, Week 0 score 2): 28 | Number of cases, cross tabulation of subscore for physician's global assessment (Week 8 score 1, Week 0 score 3): 0 | Number of cases, cross tabulation of subscore for physician's global assessment (Week 8 score 2, Week 0 score 0): 0 | Number of cases, cross tabulation of subscore for physician's global assessment (Week 8 score 2, Week 0 score 1): 0 | Number of cases, cross tabulation of subscore for physician's global assessment (Week 8 score 2, Week 0 score 2): 14 | Number of cases, cross tabulation of subscore for physician's global assessment (Week 8 score 2, Week 0 score 3): 0 | Number of cases, cross tabulation of subscore for physician's global assessment (Week 8 score 3, Week 0 score 0): 0 | Number of cases, cross tabulation of subscore for physician's global assessment (Week 8 score 3, Week 0 score 1): 0 | Number of cases, cross tabulation of subscore for physician's global assessment (Week 8 score 3, Week 0 score 2): 0 | Number of cases, cross tabulation of subscore for physician's global assessment (Week 8 score 3, Week 0 score 3): 0

Reference: US10183022B2, “Pharmaceutical composition for treating ulcerative colitis” (EA Pharma Co., Ltd., priority 2014, dated 2019)
